Where a name gives a salt, the structure may show the parent alone.
Key:
CCR2 on monocytes = test system: CCR2 on monocytes; set-up: method as in earlier work; settings: at 6 nmol/L; human PBMC ex vivo; cited from earlier work
diet-induced NASH = test: Mouse model of diet-induced NASH; format: in vivo; settings: for NAS, mean (±SD): vehicle 5.3 (±0.5); for Liver hydroxyproline content: vehicle 0.75±0.18; for Percentage of inflammation area (F4/80+ area): vehicle 4.99±1.10; for M1/M2 ratio (F4/80+CD16/32+ / F4/80+CD206+): vehicle 99.6±20.2; for Reduction in modified fibrosis area (perivascular space subtracted) vs vehicle control / Reduction in percentage of fibrosis area vs vehicle control: p < 0.01; for Plasma CCL2 levels: vehicle 60±4
Method: NASH was induced in male C57BL/6 mice (Charles River Laboratories, Japan) via subcutaneous injection of 200 μg of streptozotocin 2 days post-birth (causing mild islet inflammation and islet destruction) plus a high-fat diet (57 kcal% fat) from 4 weeks of age (sequentially causing fatty changes to the liver, NASH and fibrosis). From Weeks 6 to 9, three groups (n = 9/group) received vehicle control, CVC20 or CVC100 BID PO (S1 Table). At Week 9, six animals per group were sacrificed for assessment of liver fibrosis and Non-Alcoholic Fatty Liver Disease (NAFLD) Activity Score (NAS). The animals were sacrificed by exsanguination through direct cardiac puncture under ether anesthesia. Study endpoints included: body and liver weights, plasma biochemistry (e.g. ALT and CCL2), extracellular matrix protein in liver tissue (hydroxyproline content), mRNA expression (collagen type 1, tumor necrosis factor-alpha, MCP-1, TIMP1) and histopathological analyses. Blood samples were collected and plasma samples derived for biochemistry assessments. Sections were cut from paraffin blocks of liver tissue, prefixed in Bouin’s solution and stained with H&E for histological examination.
In the TAA model, serum ALT/AST levels were measured using VITROS® 5,1 FS (Ortho Clinical Diagnostics, USA), with plasma diluted with VITROS® 7% bovine serum albumin if needed. In the NASH model, plasma ALT levels were measured by FUJI DRI-CHEM 7000 (Fujifilm, Japan) and plasma CCL2 concentration quantified by the mouse CCL2/JE/MCP-1 immunoassay kit (R&D, USA).
In the NASH model, bright field images of picrosirius red-stained sections were captured around the central vein using a digital camera (DFC280; Leica, Germany) at 200x magnification; the ‘positive’ areas in five fields/sections were measured using ImageJ software (National Institutes of Health, USA). Perivascular areas were subtracted from the total positive areas for each field (modified fibrosis area). The NAS, a histological tool developed to assess disease severity in humans, was assessed in a blinded fashion and calculated according to Kleiner’s criteria on H&E-stained sections. It is based on the semi-quantification of steatosis, lobular inflammation and hepatocellular ballooning.
In the NASH model, liver sections fixed in acetone were incubated with anti-F4/80 antibody (BMA Biomedicals, Switzerland) to assess inflammation. Double immunohistochemical analyses were performed with anti-CD206 (RayBiotec, USA) or anti-CD16/32 (BD Biosciences, USA) antibodies. Cells were counted and the M1/M2 polarization ratio was calculated as mean percentage of F4/80+CD16/32+ cells/mean percentage of F4/80+CD206+ cells.
In the NASH model, frozen liver samples were subjected to an alkaline-acid hydrolysis, then centrifuged, and the supernatant collected. Hydroxyproline content was quantified against a hydroxyproline standard curve, with a BCA protein assay kit (Thermo Fisher Scientific, USA) used to normalize the calculated hydroxyproline values.
In the hepatic-fibrosis models, RNA was extracted from liver tissues and purified, and 1 μg of total mRNA was reverse-transcribed into complementary DNA. Expression levels were determined by quantitative polymerase chain reaction (PCR) (iQ™ SYBR® Green Supermix [Bio-Rad Laboratories, USA] on the LightCycler® 480 Real-Time PCR System [Roche, Switzerland]) in the TAA model at Week 8 (early intervention and established fibrosis) and Week 12 (cirrhosis reversal), and by real-time PCR (PCR Dice® and SYBR® Premix Ex Taq™ [Takara Bio Inc., Japan]) at Week 9 in the NASH model.
Relative mRNA expression levels were normalized to the following reference genes: TAA model, GAPDH; NASH model, 36B4 (gene symbol: Rplp0); UUO model, hypoxanthine phosphoribosyltransferase.
In the NASH model, data are expressed as mean ±standard deviation (SD). Statistical analyses were performed using the Bonferroni multiple comparison test (GraphPad Prism® 4 software).

[1] = CVC plasma levels in the UUO model (LC/MS/MS); format: in vivo; settings: n = 8, ~4 hours post-dose (approximate Cmax), Day 5
Method: Male CD-1 mice (n = 51; 7–8 weeks of age; Charles River Laboratories, USA) were allocated to weight-matched treatment groups on Day -1 (1 day prior to either sham [one group] or permanent right UUO surgery [five groups] via aseptic laparotomy). From Days -1 to 4, mice received phosphate-buffered saline (PBS) IP QD, apart from a positive-control group, which received 1D11 (anti-TGF-beta1 antibody) 3 mg/kg IP QD. From Days 0 to 5, mice received vehicle control (sham surgery, UUO-control and UUO+positive-control groups) or CVC 7 mg/kg/day (CVC7), CVC20 or CVC100 PO BID (S1 Table). The CVC100 group was terminated due to poor clinical condition (6/9 animals died and 3/9 euthanized prior to end of study). Of note, a similar dose of CVC100 administered for 3 weeks was well tolerated in the mouse NASH model; therefore, it is plausible that the laparotomy and UUO surgery in combination with CVC may have contributed to the loss of animals. […]
CVC plasma levels (minimum and maximum) were determined by KCAS Bioanalytical Services, USA, using a validated liquid chromatography-tandem mass spectrometry (LC/MS/MS) plasma method (50 μL assay, range 10.0−1920.0 ng/mL).

## CCCCOCCOc1ccc(-c2ccc3c(c2)/C=C(/C(=O)Nc2ccc([S@@+]([O-])Cc4cncn4CCC)cc2)CCCN3CC(C)C)cc1 [CVC, cenicriviroc mesylate]
CCR2 on monocytes
  Receptor occupancy for CCR2 on monocytes: ~ 98%
diet-induced NASH; CVC20, n = 6
  Hepatocyte ballooning score 0, number of animals: 0
  Hepatocyte ballooning score 1, number of animals: 3
  Hepatocyte ballooning score 2, number of animals: 3
  Lobular inflammation score 0, number of animals: 0
  Lobular inflammation score 1, number of animals: 3
  Lobular inflammation score 2, number of animals: 3
  Lobular inflammation score 3, number of animals: 0
  Steatosis score 0, number of animals: 0
  Steatosis score 1, number of animals: 6
  Steatosis score 2, number of animals: 0
  Steatosis score 3, number of animals: 0
diet-induced NASH; CVC20, n = 6, p = 0.0013
  NAS, mean (±SD): 4.0 (±0.6)
diet-induced NASH; CVC20, p < 0.05
  Reduction in collagen type 1 mRNA expression vs vehicle control: 37%
diet-induced NASH; CVC20
  Liver hydroxyproline content: 0.63 ± 0.05 µg/mg
diet-induced NASH; CVC20, not significant
  Percentage of inflammation area (F4/80+ area): 4.77±1.02%
  M1/M2 ratio (F4/80+CD16/32+ / F4/80+CD206+): 112.3±17.0%
diet-induced NASH; CVC20 BID PO Weeks 6-9
  Reduction in modified fibrosis area (perivascular space subtracted) vs vehicle control: 52.5%
  Reduction in percentage of fibrosis area vs vehicle control: 40.0%
diet-induced NASH; CVC20 BID PO Weeks 6-9, not significant
  Plasma CCL2 levels: 68 ± 16 pg/mL
diet-induced NASH; CVC100, n = 6
  Hepatocyte ballooning score 0, number of animals: 1
  Hepatocyte ballooning score 1, number of animals: 2
  Hepatocyte ballooning score 2, number of animals: 3
  Lobular inflammation score 0, number of animals: 0
  Lobular inflammation score 1, number of animals: 3
  Lobular inflammation score 2, number of animals: 3
  Lobular inflammation score 3, number of animals: 0
  Steatosis score 0, number of animals: 1
  Steatosis score 1, number of animals: 5
  Steatosis score 2, number of animals: 0
  Steatosis score 3, number of animals: 0
diet-induced NASH; CVC100, n = 6, p = 0.0009
  NAS, mean (±SD): 3.7 (±0.8)
diet-induced NASH; CVC100, not statistically significant
  Reduction in collagen type 1 mRNA expression vs vehicle control: 27%
diet-induced NASH; CVC100
  Liver hydroxyproline content: 0.62 ± 0.09 µg/mg
diet-induced NASH; CVC100, not significant
  M1/M2 ratio (F4/80+CD16/32+ / F4/80+CD206+): 125.1±21.9%
diet-induced NASH; CVC100 BID PO Weeks 6-9
  Reduction in modified fibrosis area (perivascular space subtracted) vs vehicle control: 67.2%
  Reduction in percentage of fibrosis area vs vehicle control: 41.8%
diet-induced NASH; CVC100 BID PO Weeks 6-9, significant increase
  Plasma CCL2 levels: 91 ± 14 pg/mL
diet-induced NASH; CVC-high, not significant
  Percentage of inflammation area (F4/80+ area): 4.96±0.60%
diet-induced NASH; NASH model, Week 9
  mRNA expression levels of the other fibrosis markers tested, vehicle control vs CVC groups: no statistically significant differences
diet-induced NASH; both CVC doses (CVC20, CVC100 BID PO Weeks 6-9), p < 0.05
  Plasma ALT levels vs vehicle control: significantly decreased
[1]; CVC7 BID
  CVC concentration (mean±SD), plasma: 251 ± 364 ng/mL
[1]; CVC20 BID
  CVC concentration (mean±SD), plasma: 971 ± 507 ng/mL
